US20100286173A1 (priority 2008, published 2010)
Where two headings read alike, the source gives them in different places.

Test: Measurement of logP values by HPLC on reversed phase columns (EEC directive 79/831 Annex V.A8)
Format: physicochemical
Settings: pH 2.7, 0.1% formic acid in water / acetonitrile gradient 10% to 95%; for chromatographic logP: reversed phase HPLC column

Compound | logp | also measured
CCCCCC(=O)Nc1cccc(CON=C(c2cccc(C(F)(F)F)c2F)c2nnnn2C)n1 [Example 27, N-(6-{[({[2-fluoro-3-(trifluoromethyl)phenyl](1-methyl-1H-tetrazol-5-yl)methylidene}amino)oxy]methyl}pyridin-2-yl)hexanamide] | – | chromatographic logP: 4.16
CCCCCC(=O)Nc1cccc(CON=C(c2ccc(C)c(C(F)(F)F)c2)c2nnnn2C)n1 [Example 118] | 4.56 | –
CCCCCC(=O)Nc1cccc(CON=C(c2cccc(C)c2F)c2nnnn2C)n1 [Example 103] | 3.96 | –
Cn1nnnc1C(=NOCc1cccc(N)n1)c1cc(F)cc(C(F)(F)F)c1 [Example 127] | 1.75 | –
Cc1cc(C(=NOCc2cccc(N)n2)c2nnnn2C)ccc1F [Example 159] | – | Log p: 1.50
C=CCCOC(=O)Nc1cccc(CON=C(c2ccc(F)c(C)c2)c2nnnn2C)n1 [Example 55] | 3.92 | –
CCCCCC(=O)Nc1cccc(CON=C(c2ccc(OC(F)(F)F)cc2C)c2nnnn2C)n1 (single isomer, unassigned) [Example 108] | 4.39 | –
Cc1ccc(C(=NOCc2cccc(NC(=O)CC(C)C)n2)c2nnnn2C)c(F)c1 [Example 38] | 3.53 | –
CC(C)CC(=O)Nc1cccc(CON=C(c2ccc(Cl)c(C(F)(F)F)c2)c2nnnn2C)n1 [Example 70] | 4.26 | –
Cn1nnnc1C(=NOCc1csc(N)n1)c1ccc(F)c(Oc2ccccc2)c1 [Example 149] | – | Log p: 2.25
Cn1nnnc1C(=NOCc1csc(NC(=O)C2CC2)n1)c1ccc(F)c(Oc2ccccc2)c1 [Example 148] | – | Log p: 3.48
CCCCCC(=O)Nc1cccc(CON=C(c2cc(C(F)(F)F)ccc2Cl)c2nnnn2C)n1 [Example 106] | 4.39 | –
Cc1ccc(C(=NOCc2cccc(NC(=O)CC(C)C)n2)c2nnnn2C)c(Cl)c1 [Example 40] | 3.73 | –
Cn1nnnc1C(=NOCc1cccc(N)n1)c1ccc(C(F)(F)F)cc1F (single isomer, unassigned) [Example 142] | – | Log p: 1.72
Cc1nc(N)cc(CON=C(c2ccc(F)c(Oc3ccccc3)c2)c2nnnn2C)n1 [Example 129] | 1.75 | –
Cc1ccc(F)c(C(=NOCc2cccc(N)n2)c2nnnn2C)c1 [Example 136] | – | Log p: 1.4
Cc1ccc(Cl)c(C(=NOCc2cccc(NC(=O)CC(C)C)n2)c2nnnn2C)c1 [Example 62] | 3.53 | –
CCCCCC(=O)Nc1cccc(CON=C(c2ccc(C)cc2Cl)c2nnnn2C)n1 (single isomer, unassigned) [Example 113] | 4.16 | –
Cn1nnnc1C(=NOCc1csc(NC(=O)C(C)(C)C)n1)c1ccc(F)c(Oc2ccccc2)c1 [Example 147] | – | Log p: 4.05
CCCCCC(=O)Nc1cccc(CON=C(c2cc(C)ccc2Cl)c2nnnn2C)n1 (single isomer, unassigned) [Example 117] | 4.19 | –
CCC#Cc1nc(CON=C(c2ccc(F)c(C)c2)c2nnnn2C)cs1 [Example 156] | – | Log p: 4.09
CCCCCOC(=O)Nc1cccc(CON=C(c2ccc(C(F)(F)F)c(Cl)c2)c2nnnn2C)n1 [Example 79] | 5.23 | –

Compound | logp | also measured
Cc1cc(F)cc(C(=NOCc2cccc(NC(=O)CC(C)C)n2)c2nnnn2C)c1 (single isomer, unassigned) [Example 158] | – | Log p: 3.76
CC(C)CC(=O)Nc1cccc(CON=C(c2ccc(F)c(C(F)(F)F)c2)c2nnnn2C)n1 [Example 66] | 3.94 | –
CCCCCOC(=O)Nc1nc(CON=C(c2ccc(C)c(C(F)(F)F)c2)c2nnnn2C)cs1 [Example 22, pentyl(4-{[({(1-methyl-1H-tetrazol-5-yl)[4-methyl-3-(trifluoromethyl)phenyl]methylidene}amino)oxy]methyl}-1,3-thiazol-2-yl)carbamate] | – | chromatographic logP: 4.73
CCCCCOC(=O)Nc1cccc(CON=C(c2cc(C)ccc2Cl)c2nnnn2C)n1 [Example 83] | 4.54 | –
CCCCCOC(=O)Nc1cccc(CON=C(c2cccc(C(F)(F)F)c2C)c2nnnn2C)n1 [Example 44] | 4.78 | –
Cc1cc(C(=NOCc2cccc(NC(=O)CC(C)C)n2)c2nnnn2C)ccc1F [Example 37] | 3.67 | –
CC(C)CC(=O)Nc1cccc(CON=C(c2ccc(C(F)(F)F)c(Cl)c2)c2nnnn2C)n1 [Example 71] | 4.29 | –
Cn1nnnc1C(=NOCc1cccc(N)n1)c1cccc(C(F)(F)F)c1F [Example 143, 6-{[({[2-fluoro-3-(trifluoromethyl)phenyl](1-methyl-1H-tetrazol-5-yl)methylidene}amino)oxy]methyl}pyridin-2-amine] | – | chromatographic logP (read-out: Log p): 1.75
CCCCCOC(=O)Nc1cccc(CON=C(c2ccc(C)c(C(F)(F)F)c2)c2nnnn2C)n1 [Example 81] | 5.08 | –
CCCCCC(=O)Nc1cccc(CON=C(c2ccc(C(F)(F)F)c(Cl)c2)c2nnnn2C)n1 [Example 107] | 4.7 | –
CCCCCC(=O)Nc1cccc(CON=C(c2cc(C)ccc2F)c2nnnn2C)n1 [Example 100] | 3.92 | –
CCCCCOC(=O)Nc1cccc(CON=C(c2ccc(C(F)(F)F)cc2F)c2nnnn2C)n1 (single isomer, unassigned) [Example 23] | 4.78 | –
Cc1cccc(C(=NOCc2cccc(N)n2)c2nnnn2C)c1F [Example 138] | – | Log p: 1.42
Cc1ccc(C(=NOCc2cccc(NC(=O)CC(C)C)n2)c2nnnn2C)cc1F [Example 32] | 3.71 | –
CCCCCOC(=O)Nc1cccc(CON=C(c2ccc(F)c(C(F)(F)F)c2)c2nnnn2C)n1 [Example 82] | 4.86 | –
Cc1ccc(C(=NOCc2cccc(NC(=O)CC(C)C)n2)c2nnnn2C)cc1C(F)(F)F [Example 43] | 4.16 | –
Cc1ccc(F)c(C(=NOCc2cccc(NC(=O)CC(C)C)n2)c2nnnn2C)c1 [Example 48] | 3.53 | –
Cc1cc(C(=NOCc2csc(NCCC3CCCCC3)n2)c2nnnn2C)ccc1F [Example 151] | – | Log p: 4.36
Cc1cc(C)cc(C(=NOCc2cccc(N)n2)c2nnnn2C)c1 [Example 125] | 1.81 | –
COc1ccc(CC(=O)Nc2cccc(CON=C(c3ccc(F)c(C)c3)c3nnnn3C)n2)cc1 [Example 59] | 3.68 | –
Cc1cc(C(=NOCc2cccc(NC(=O)CCC3CCCC3)n2)c2nnnn2C)ccc1F [Example 58] | 4.56 | –
Cc1ccc(C(F)(F)F)cc1C(=NOCc1csc(N)n1)c1nnnn1C [Example 130] | 1.92 | –

Compound | logp | also measured
CCCCCOC(=O)Nc1cccc(CON=C(c2ccc(C(F)(F)F)c(Cl)c2)c2nnnn2C)n1 [Example 86] | 5.2 | –
CCCCCOC(=O)Nc1cccc(CON=C(c2ccc(OC(F)(F)F)cc2C)c2nnnn2C)n1 (single isomer, unassigned) [Example 96] | 4.89 | –
Cc1cc(C(=NOCc2csc(Br)n2)c2nnnn2C)ccc1F [Example 161, N-[(2-bromo-1,3-thiazol-4-yl)methoxy]-1-(4-fluoro-3-methylphenyl)-1-(1-methyl-1H-tetrazol-5-yl)methanimine] | – | chromatographic logP (read-out: Log p): 3.57
CCCCCOC(=O)Nc1cccc(CON=C(c2ccc(C)c(C(F)(F)F)c2)c2nnnn2C)n1 [Example 78] | 5.05 | –
Cc1cc(OC(F)(F)F)ccc1C(=NOCc1cccc(NC(=O)CC(C)C)n1)c1nnnn1C [Example 34] | 4.16 | –
Cc1ccc(C(=NOCc2nccc(N)n2)c2nnnn2C)cc1C(F)(F)F [Example 128, 2-{[({(1-methyl-1H-tetrazol-5-yl)[4-methyl-3-(trifluoromethyl)phenyl]methylidene}amino)oxy]methyl}pyrimidin-4-amine] | – | chromatographic logP: 1.7
CCCC#Cc1nc(CON=C(c2ccc(F)c(C)c2)c2nnnn2C)cs1 [Example 153, 1-(4-fluoro-3-methylphenyl)-1-(1-methyl-1H-tetrazol-5-yl)-N-{[2-(pent-1-yn-1-yl)-1,3-thiazol-4-yl]methoxy}methanimine] | – | chromatographic logP (read-out: Log p): 4.36
Cc1cc(C(=NOCc2csc(C#CCCCc3ccccc3)n2)c2nnnn2C)ccc1F [Example 155] | – | Log p: 5.32
CC#CCOC(=O)Nc1cccc(CON=C(c2ccc(F)c(C)c2)c2nnnn2C)n1 [Example 101] | 3.67 | –
Cn1nnnc1C(=NOCc1csc(N)n1)c1cc(F)cc(C(F)(F)F)c1 [Example 131] | 2.14 | –
Cn1nnnc1C(=NOCc1cccc(N)n1)c1cccc(C(F)(F)F)c1F (single isomer, unassigned) [Example 144] | – | Log p: 1.65
CC(C)CC(=O)Nc1cccc(CON=C(c2cc(C(F)(F)F)ccc2Cl)c2nnnn2C)n1 [Example 63] | 3.96 | –
CCCCCOC(=O)Nc1cccc(CON=C(c2cc(C)ccc2Cl)c2nnnn2C)n1 [Example 84] | 4.73 | –
Cc1ccc(Cl)c(C(=NOCc2cccc(NC(=O)CC(C)C)n2)c2nnnn2C)c1 [Example 35] | 3.73 | –
Cc1ccc(C(=NOCc2cccc(NC(=O)CC(C)C)n2)c2nnnn2C)c(Cl)c1 [Example 51] | 3.53 | –
CCCCCOC(=O)Nc1cccc(CON=C(c2cc(C)cc(C)c2)c2nnnn2C)n1 [Example 39] | 4.86 | –
CCCCCOC(=O)Nc1cccc(CON=C(c2ccc(C)cc2Cl)c2nnnn2C)n1 [Example 91] | 4.7 | –
CCCCCC(=O)Nc1cccc(CON=C(c2cc(C(F)(F)F)ccc2C)c2nnnn2C)n1 [Example 111] | 4.34 | –
CCCCCC(=O)Nc1cccc(CON=C(c2ccc(C)c(F)c2)c2nnnn2C)n1 (single isomer, unassigned) [Example 114] | 4.16 | –
Cc1ccc(F)c(C(=NOCc2cccc(NC(=O)CC(C)C)n2)c2nnnn2C)c1 [Example 75] | 3.42 | –
CCCCOC(=O)Nc1ccnc(CON=C(c2ccc(C)c(C(F)(F)F)c2)c2nnnn2C)n1 [Example 8, butyl(2-{[({(1-methyl-1H-tetrazol-5-yl)[4-methyl-3-(trifluoromethyl)phenyl]methylidene}amino)oxy]methyl}pyrimidin-4-yl)carbamate] | – | chromatographic logP: 4.24
Cc1ccc(C(=NOCc2csc(N)n2)c2nnnn2C)cc1C(F)(F)F [Example 145, 4-{[({(1-methyl-1H-tetrazol-5-yl)[4-methyl-3-(trifluoromethyl)phenyl]methylidene}amino)oxy]methyl}-1,3-thiazol-2-amine] | – | chromatographic logP (read-out: Log p): 2.22
